Laboratory results: US11542304B2, “Multimeric bicyclic peptide ligands” (BicycleTx Limited, priority 2018, dated 2023)

Biological target: CD137 (Homo sapiens, UniProt Q07011)
Experiment: CD137 Promega reporter cell activity assay (NF-κB luciferase in Jurkat cells)
Conditions: for Average Fold EC50 Improvement relative to CD137L: Average EC50 for CD137L = 14.2 nM; for Average Relative Fold Induction relative to CD137L: Average fold induction for CD137L = 4.0
Description: CD137 binding multimers were evaluated for CD137 using a Reporter cell activity assay that uses NF-κB luciferase luminescence as a read-out of CD137 activation in Jurkat cells. […] Samples were diluted at concentration expected to give the maximum fold induction and then titrated down in 1/3 dilution series or 1/10 dilution series in a sterile 96 well-plate. […] 50 μl cells were added per well to white cell culture plates.
Cells were co-incubated together with agonists for 6 h at 37° C., 5% CO2. After 6 h Bio-Glo™ was thawed and the assay developed at room-temperature. 75 ul Bio-Glo™ was added per well and incubated for 5-10 min. Luciferase signal was read on a Pherastar plate-reader using MARS program. Data was analysed by transforming the data to x=log (X), then plotting log (agonist) vs. response variable slope (4 parameters) to calculate EC50 values.

Sequence of CD137 (Q07011 24-255): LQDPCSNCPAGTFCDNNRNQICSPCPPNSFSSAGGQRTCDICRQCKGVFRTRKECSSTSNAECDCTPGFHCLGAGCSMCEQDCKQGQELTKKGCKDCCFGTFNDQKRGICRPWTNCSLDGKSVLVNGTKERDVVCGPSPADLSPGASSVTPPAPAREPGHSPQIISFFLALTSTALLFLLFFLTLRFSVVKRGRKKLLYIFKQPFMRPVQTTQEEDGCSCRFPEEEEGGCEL

CCCC[C@@H]1NC(=O)[C@H](Cc2ccc(O)cc2)NC(=O)[C@@H]2CCCN2C(=O)[C@H](CC(=O)O)NC(=O)[C@H](C)NC(=O)[C@H](Cc2ccccc2)NC(=O)[C@@H]2CSCCC(=O)N3CN(CN(C3)C(=O)CCSC[C@@H](C(=O)N[C@@H](C)C(N)=O)NC1=O)C(=O)CCSC[C@H](NC(=O)[C@H](C)NC(=O)OCC1C3CCc4nnn(CCOCCOCCOCCOCCOCCOCCOCCOCCOCCOCCOCCOCCOCCOCCOCCOCCOCCOCCOCCOCCOCCOCCOCCNC(=O)CCOCC(COCCC(=O)NCCOCCOCCOCCOCCOCCOCCOCCOCCOCCOCCOCCOCCOCCOCCOCCOCCOCCOCCOCCOCCOCCOCCOCCn5nnc6c5CCC5C(CC6)C5COC(=O)N[C@@H](C)C(=O)N[C@H]5CSCCC(=O)N6CN7CN(C6)C(=O)CCSC[C@H](NC(=O)[C@H](Cc6ccc(O)cc6)NC(=O)[C@H](CCC(N)=O)NC(=O)CNC(=O)[C@H](CCC(=O)O)NC(=O)[C@H](CCC(=O)O)NC(=O)[C@H]([C@@H](C)CC)NC5=O)C(=O)N[C@@H](Cc5ccccc5)C(=O)N[C@@H](C)C(=O)N[C@@H](CC(=O)O)C(=O)N5CCC[C@H]5C(=O)N[C@@H](Cc5ccc(O)cc5)C(=O)N[C@@H](CCCC)C(=O)N[C@H](C(=O)N[C@@H](C)C(N)=O)CSCCC7=O)(COCCC(=O)NCCOCCOCCOCCOCCOCCOCCOCCOCCOCCOCCOCCOCCOCCOCCOCCOCCOCCOCCOCCOCCOCCOCCOCCn5nnc6c5CCC5C(CC6)C5COC(=O)N[C@@H](C)C(=O)N[C@H]5CSCCC(=O)N6CN7CN(C6)C(=O)CCSC[C@H](NC(=O)[C@H](Cc6ccc(O)cc6)NC(=O)[C@H](CCC(N)=O)NC(=O)CNC(=O)[C@H](CCC(=O)O)NC(=O)[C@H](CCC(=O)O)NC(=O)[C@H]([C@@H](C)CC)NC5=O)C(=O)N[C@@H](Cc5ccccc5)C(=O)N[C@@H](C)C(=O)N[C@@H](CC(=O)O)C(=O)N5CCC[C@H]5C(=O)N[C@@H](Cc5ccc(O)cc5)C(=O)N[C@@H](CCCC)C(=O)N[C@H](C(=O)N[C@@H](C)C(N)=O)CSCCC7=O)COCCC(=O)NCCOCCOCCOCCOCCOCCOCCOCCOCCOCCOCCOCCOCCOCCOCCOCCOCCOCCOCCOCCOCCOCCOCCOCCn5nnc6c5CCC5C(CC6)C5COC(=O)N[C@@H](C)C(=O)N[C@H]5CSCCC(=O)N6CN7CN(C6)C(=O)CCSC[C@H](NC(=O)[C@H](Cc6ccc(O)cc6)NC(=O)[C@H](CCC(N)=O)NC(=O)CNC(=O)[C@H](CCC(=O)O)NC(=O)[C@H](CCC(=O)O)NC(=O)[C@H]([C@@H](C)CC)NC5=O)C(=O)N[C@@H](Cc5ccccc5)C(=O)N[C@@H](C)C(=O)N[C@@H](CC(=O)O)C(=O)N5CCC[C@H]5C(=O)N[C@@H](Cc5ccc(O)cc5)C(=O)N[C@@H](CCCC)C(=O)N[C@H](C(=O)N[C@@H](C)C(N)=O)CSCCC7=O)c4CCC31)C(=O)N[C@@H]([C@@H](C)CC)C(=O)N[C@@H](CCC(=O)O)C(=O)N[C@@H](CCC(=O)O)C(=O)NCC(=O)N[C@@H](CCC(N)=O)C(=O)N[C@@H](Cc1ccc(O)cc1)C(=O)N2 (stereo partly drawn) [BCY8149]
Average Fold EC50 Improvement relative to CD137L: 140.06
Average Relative Fold Induction relative to CD137L: 0.93

CC[C@H](C)[C@@H]1NC(=O)[C@@H](NC(=O)[C@H](C)NC(C)=O)CSCCC(=O)N2CN3CN(C2)C(=O)CCSC[C@H](NC(=O)[C@H](Cc2ccc(O)cc2)NC(=O)[C@H](CCC(N)=O)NC(=O)CNC(=O)[C@H](CCC(=O)O)NC(=O)[C@H](CCC(=O)O)NC1=O)C(=O)N[C@@H](Cc1ccccc1)C(=O)N[C@@H](C)C(=O)N[C@@H](CC(=O)O)C(=O)N1CCC[C@H]1C(=O)N[C@@H](Cc1ccc(O)cc1)C(=O)N[C@@H](CCCCNC(=O)OCC1C2CCc4nnn(CCOCCOCCOCCOCCOCCOCCOCCOCCOCCOCCOCCOCCOCCOCCOCCOCCOCCOCCOCCOCCOCCOCCOCCNC(=O)CCOCCN(CCOCCC(=O)NCCOCCOCCOCCOCCOCCOCCOCCOCCOCCOCCOCCOCCOCCOCCOCCOCCOCCOCCOCCOCCOCCOCCOCCn5nnc6c5CCC5C(CC6)C5COC(=O)NCCCC[C@@H]5NC(=O)[C@H](Cc6ccc(O)cc6)NC(=O)[C@@H]6CCCN6C(=O)[C@H](CC(=O)O)NC(=O)[C@H](C)NC(=O)[C@H](Cc6ccccc6)NC(=O)[C@@H]6CSCCC(=O)N7CN(CN(C7)C(=O)CCSC[C@@H](C(=O)N[C@@H](C)C(N)=O)NC5=O)C(=O)CCSC[C@H](NC(=O)[C@H](C)NC(C)=O)C(=O)N[C@@H]([C@@H](C)CC)C(=O)N[C@@H](CCC(=O)O)C(=O)N[C@@H](CCC(=O)O)C(=O)NCC(=O)N[C@@H](CCC(N)=O)C(=O)N[C@@H](Cc5ccc(O)cc5)C(=O)N6)CCOCCC(=O)NCCOCCOCCOCCOCCOCCOCCOCCOCCOCCOCCOCCOCCOCCOCCOCCOCCOCCOCCOCCOCCOCCOCCOCCn5nnc6c5CCC5C(CC6)C5COC(=O)NCCCC[C@@H]5NC(=O)[C@H](Cc6ccc(O)cc6)NC(=O)[C@@H]6CCCN6C(=O)[C@H](CC(=O)O)NC(=O)[C@H](C)NC(=O)[C@H](Cc6ccccc6)NC(=O)[C@@H]6CSCCC(=O)N7CN(CN(C7)C(=O)CCSC[C@@H](C(=O)N[C@@H](C)C(N)=O)NC5=O)C(=O)CCSC[C@H](NC(=O)[C@H](C)NC(C)=O)C(=O)N[C@@H]([C@@H](C)CC)C(=O)N[C@@H](CCC(=O)O)C(=O)N[C@@H](CCC(=O)O)C(=O)NCC(=O)N[C@@H](CCC(N)=O)C(=O)N[C@@H](Cc5ccc(O)cc5)C(=O)N6)c4CCC21)C(=O)N[C@H](C(=O)N[C@@H](C)C(N)=O)CSCCC3=O (stereo partly drawn) [BCY8107]
Average Fold EC50 Improvement relative to CD137L: 64.33
Average Relative Fold Induction relative to CD137L: 0.64

CC[C@H](C)[C@@H]1NC(=O)[C@@H](NC(=O)[C@H](C)NC(C)=O)CSCCC(=O)N2CN3CN(C2)C(=O)CCSC[C@H](NC(=O)[C@H](Cc2ccc(O)cc2)NC(=O)[C@H](CCC(N)=O)NC(=O)CNC(=O)[C@H](CCC(=O)O)NC(=O)[C@H](CCC(=O)O)NC1=O)C(=O)N[C@@H](Cc1ccccc1)C(=O)N[C@@H](C)C(=O)N[C@@H](CC(=O)O)C(=O)N1CCC[C@H]1C(=O)N[C@@H](Cc1ccc(O)cc1)C(=O)N[C@@H](CCCCNC(=O)OCC1C2CCc4nnn(CCOCCOCCOCCOCCOCCOCCOCCOCCOCCOCCNC(=O)CCOCCN(CCOCCC(=O)NCCOCCOCCOCCOCCOCCOCCOCCOCCOCCOCCn5nnc6c5CCC5C(CC6)C5COC(=O)NCCCC[C@@H]5NC(=O)[C@H](Cc6ccc(O)cc6)NC(=O)[C@@H]6CCCN6C(=O)[C@H](CC(=O)O)NC(=O)[C@H](C)NC(=O)[C@H](Cc6ccccc6)NC(=O)[C@@H]6CSCCC(=O)N7CN(CN(C7)C(=O)CCSC[C@@H](C(=O)N[C@@H](C)C(N)=O)NC5=O)C(=O)CCSC[C@H](NC(=O)[C@H](C)NC(C)=O)C(=O)N[C@@H]([C@@H](C)CC)C(=O)N[C@@H](CCC(=O)O)C(=O)N[C@@H](CCC(=O)O)C(=O)NCC(=O)N[C@@H](CCC(N)=O)C(=O)N[C@@H](Cc5ccc(O)cc5)C(=O)N6)CCOCCC(=O)NCCOCCOCCOCCOCCOCCOCCOCCOCCOCCOCCn5nnc6c5CCC5C(CC6)C5COC(=O)NCCCC[C@@H]5NC(=O)[C@H](Cc6ccc(O)cc6)NC(=O)[C@@H]6CCCN6C(=O)[C@H](CC(=O)O)NC(=O)[C@H](C)NC(=O)[C@H](Cc6ccccc6)NC(=O)[C@@H]6CSCCC(=O)N7CN(CN(C7)C(=O)CCSC[C@@H](C(=O)N[C@@H](C)C(N)=O)NC5=O)C(=O)CCSC[C@H](NC(=O)[C@H](C)NC(C)=O)C(=O)N[C@@H]([C@@H](C)CC)C(=O)N[C@@H](CCC(=O)O)C(=O)N[C@@H](CCC(=O)O)C(=O)NCC(=O)N[C@@H](CCC(N)=O)C(=O)N[C@@H](Cc5ccc(O)cc5)C(=O)N6)c4CCC21)C(=O)N[C@H](C(=O)N[C@@H](C)C(N)=O)CSCCC3=O (stereo partly drawn) [BCY8106]
Average Fold EC50 Improvement relative to CD137L: 1.26
Average Relative Fold Induction relative to CD137L: 0.94
